The record followed here is patent US11208404B2 (PERENNA PHARMACEUTICALS, INC., priority 2017, dated 2021).

Values joined by “and” are separate entries in the source; they are usually repeats but may differ in a detail not shown here. Identical values can stand only once. Like-named read-outs stand apart in the source and are kept apart here.

This experiment deals with ALCAT1 (Homo sapiens (Human), UniProt Q6UWP7). Kind of experiment: In vitro acyltransferase assay for ALCAT1 inhibitors. Type of experiment: biochemical. The note with it: for inhibition at 1 µM / % inh @ 1 μM: 1 μM compound; for IC50: ALCAT1 enzyme activity. In short, it runs like this:
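Membrane fractions from Sf9 cells expressing human ALCAT1 incubated 30 min at room temperature with 100 µM MLCL or LPG and 25 µM [14C]acyl-CoA (or 100 µM NBD-CoA) in 50 mM Tris/HCl pH 7.0.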

Where [1] appears, read: 10 μM compound, in vitro enzymatic assay.
Where [2] appears, read: triplicates, GraphPad, read-out: IC50.

ALCAT1, sequence (Q6UWP7 whole entry): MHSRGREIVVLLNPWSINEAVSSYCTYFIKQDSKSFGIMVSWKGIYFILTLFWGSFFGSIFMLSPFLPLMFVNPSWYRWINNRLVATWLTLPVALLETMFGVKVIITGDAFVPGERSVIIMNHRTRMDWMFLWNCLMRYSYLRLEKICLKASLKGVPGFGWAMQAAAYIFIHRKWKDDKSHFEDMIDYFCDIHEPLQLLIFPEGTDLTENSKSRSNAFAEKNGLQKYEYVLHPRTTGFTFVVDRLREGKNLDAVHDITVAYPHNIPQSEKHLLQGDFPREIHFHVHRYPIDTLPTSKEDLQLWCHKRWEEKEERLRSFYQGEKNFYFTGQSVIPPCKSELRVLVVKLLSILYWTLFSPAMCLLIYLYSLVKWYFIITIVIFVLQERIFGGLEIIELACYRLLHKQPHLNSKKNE

Take `O=C(Nc1cccc(-c2nnc(-c3ccco3)o2)c1)c1cccc(F)c1F` [Compound 196]: for the setting “in vitro enzymatic assay”, 1 µM produced 68% inhibition. The molecule further had an inhibition at 10 µM under setting [1] of 97%. Besides, the IC50 under setting [2] was 340 nM. Taken in the same sequence, the figures for `COc1ccc(I)cc1C(=O)Nc1cccc(-c2nnc(-c3ccco3)o2)c1` [Compound 113] were 96%, 94% and 110 nM. On to `O=C(Nc1cccc(-c2nnc(-c3ccco3)o2)c1)c1ccc(I)cc1` [Compound 84], for which the inhibition at 1 µM (in vitro enzymatic assay) is 5%. In the case of `O=C(Nc1cccc(-c2nnc(-c3ccco3)o2)c1)c1cccc(C(F)(F)F)c1` [Compound 234], where the note is “in vitro enzymatic assay”, the “% inh @ 1 μM” value came to 42% and the inhibition at 1 µM came to 46%. Take `O=C(Nc1cccc(-c2nnc(-c3ccco3)o2)c1)c1ccccc1O` [Compound 64]: the inhibition at 1 µM (in vitro enzymatic assay) is 15%. Under setting [1], this molecule had an inhibition at 10 µM of 55%. Molecule `O=C(Nc1cc(-c2nnc(-c3ccco3)o2)ccc1Cl)c1ccccc1F` [Compound 23] gave an inhibition at 10 µM under setting [1] of 89%. Moreover, the IC50 under setting [2] was 1800 nM. Turning to `O=C(Nc1cc(-c2nnc(-c3ccco3)o2)ccn1)c1ccccc1F` [Compound 39, 2-Fluoro-N-(4-(5-(furan-2-yl)-1,3,4-oxadiazol-2-yl)pyridin-2-yl)benzamide], under “in vitro enzymatic assay”, the inhibition at 1 µM is 92%. In addition, the IC50 under setting [2] stood at 93 nM.

Molecule `O=C(Nc1cccc(-c2nnc(-c3ccco3)o2)c1)c1cc([N+](=O)[O-])ccc1Cl` [Compound 337] yielded an inhibition at 1 µM (in vitro enzymatic assay) of 66%. Also, under setting [2], the IC50 was 760 nM. Molecule `COc1ccccc1C(=O)Nc1cccc(-c2nnc(-c3ccco3)o2)c1` [Compound 55] registered an inhibition at 1 µM (in vitro enzymatic assay) of 81%. Besides, testing at 10 µM under setting [1] gave an inhibition of 100%. For the same molecule, the IC50 under setting [2] worked out at 130 nM.

With `O=C(Nc1cccc(-c2nnc(-c3ccco3)o2)c1)c1cccc(Cl)c1` [Compound 59], under setting [2], the IC50 is 2000 nM. As to `O=C(Nc1ccc(-c2nnc(-c3ccco3)o2)cc1)c1ccccc1F` [Compound 35, 2-fluoro-N-(4-(5-(furan-2-yl)-1,3,4-oxadiazol-2-yl)phenyl)benzamide], for the setting “in vitro enzymatic assay”, the inhibition at 1 µM came to 16%. Under setting [1], this molecule returned an inhibition at 10 µM of 5%. The molecule `O=C(Nc1cccc(-c2nnc(-c3ccco3)o2)c1)c1cncc([N+](=O)[O-])c1` [Compound 345] yielded an inhibition at 1 µM (in vitro enzymatic assay) of 24%. On to `Cc1ccc(NC(=O)c2ccccc2F)cc1-c1nnc(-c2ccco2)o1` [Compound 81], for which, under “in vitro enzymatic assay”, the “% inh @ 1 μM” value was 36% and 1 µM produced 20% inhibition. Turning to `O=C(Nc1cccc(-c2nnc(-c3ccco3)o2)c1)c1cccnc1` [Compound 235], the inhibition at 1 µM (in vitro enzymatic assay) is 12%. For the setting “in vitro enzymatic assay”, `CCOc1ccc(F)cc1C(=O)Nc1cccc(-c2nnc(-c3ccco3)o2)c1` [Compound 125, 2-Ethoxy-5-fluoro-N-(3-(5-(furan-2-yl)-1,3,4-oxadiazol-2-yl)phenyl)benzamide] had an inhibition at 1 µM of 92%. In addition, the inhibition at 10 µM under setting [1] came out at 97%. Besides, the IC50 under setting [2] stood at 67 nM. In turn, `O=C(Nc1cccc(-c2nnc(-c3ccco3)o2)c1)c1c(F)cccc1F` [Compound 143] came in with an inhibition at 1 µM (in vitro enzymatic assay) of 13%. In addition, under setting [1], the inhibition at 10 µM was 17%. `O=C(Nc1cccc(-c2nnc(-c3ccco3)o2)c1)c1cc(F)cc([N+](=O)[O-])c1` [Compound 338]: at 1 µM the inhibition (in vitro enzymatic assay) was 65%.

`COc1ccccc1C(=O)Nc1cc(-c2nnc(-c3ccco3)o2)ccc1F` [Compound 128, N-(2-Fluoro-5-(5-(furan-2-yl)-1,3,4-oxadiazol-2-yl)phenyl)-2-methoxybenzamide] came in with an inhibition at 1 µM (in vitro enzymatic assay) of 100%. This molecule came in with an inhibition at 10 µM under setting [1] of 100%. In addition, the IC50 by setting is: (read-out: IC50 values (upper bounds)) under 100 nM; under setting [2], 29 nM.

`COc1ccc(Cl)cc1C(=O)Nc1cccc(-c2nnc(-c3ccco3)o2)c1` [Compound 124, 5-Chloro-N-(3-(5-(furan-2-yl)-1,3,4-oxadiazol-2-yl)phenyl)-2-methoxybenzamide] showed an inhibition at 1 µM (in vitro enzymatic assay) of 92%. Further, under setting [1], the inhibition at 10 µM was found to be 100%. The IC50 under setting [2] came out at 62 nM. In the case of `O=C(Nc1cccc(-c2nnc(C3CCCO3)o2)c1)c1ccccc1F` (stereo not drawn) [Compound 22, 2-fluoro-N-(3-(5-(tetrahydrofuran-2-yl)-1,3,4-oxadiazol-2-yl)phenyl)benzamide], the inhibition at 1 µM (in vitro enzymatic assay) turned out to be 20%. The molecule further registered an inhibition at 10 µM under setting [1] of 8%. `O=C(Nc1cccc(-c2nnc(-c3ccc[nH]3)o2)c1)c1ccccc1F` [Compound 16]: the “% inh @ 1 μM” value (in vitro enzymatic assay) was 58% and 85%. For `O=C(Nc1cccc(-c2nnc(-c3ccco3)o2)c1)c1ccc(-c2ccccc2)cc1` [Compound 48], under setting [1], the “% inh @ 10 μM” value turned out to be 2%. Regarding `O=C(Nc1cccc(-c2nnc(-c3ccco3)o2)c1)c1cc(Cl)ccc1OCC(F)F` [Compound 286], the IC50 under setting [2] stood at 120 nM. Take `CS(=O)(=O)c1ccccc1C(=O)Nc1cccc(-c2nnc(-c3ccco3)o2)c1` [Compound 248]: under “in vitro enzymatic assay”, the “% inh @ 1 μM” value was determined as 50% and the inhibition at 1 µM was found to be 30%. Regarding `O=C(Nc1cccc(-c2nnc(-c3ccco3)o2)c1)c1ccccc1OC(F)F` [Compound 273], where the note is “in vitro enzymatic assay”, the “% inh @ 1 μM” value was determined as 96% and at 1 µM the inhibition was 97%. In addition, the IC50 under setting [2] worked out at 120 nM.

`O=C(Nc1ccc(Cl)c(-c2nnc(-c3ccco3)o2)c1)c1ccccc1F` [Compound 24] had an inhibition at 10 µM under setting [1] of 2%.

For `O=C(Nc1cccc(-c2nnc(-c3ccco3)o2)c1)c1ccc(C(F)F)cc1` [Compound 10], at 10 µM the inhibition under setting [1] was 2%. Where the note is “in vitro enzymatic assay”, `O=C(Nc1cccc(-c2nnc(-c3ccco3)o2)c1)c1ccc2c(c1)OCO2` [Compound 177] gave an inhibition at 1 µM of 3%. Further, under setting [1], testing at 10 µM gave an inhibition of 1%. `Cc1ccc(OCC(F)(F)F)c(C(=O)Nc2cccc(-c3nnc(-c4ccco4)o3)c2)c1` [Compound 224]: for the setting “in vitro enzymatic assay”, the “% inh @ 1 μM” value was 97% and the inhibition at 1 µM turned out to be 91%. Further, the IC50 under setting [2] is 190 nM. `O=C(Nc1cccc(-c2nnc(-c3ccco3)o2)c1)c1ccc2occc2c1` [Compound 212] had an inhibition at 1 µM (in vitro enzymatic assay) of 26%. On to `O=C(Nc1cncc(-c2nnc(-c3ccco3)o2)c1)c1ccccc1F` [Compound 51], for which, under “in vitro enzymatic assay”, the “% inh @ 1 μM” value was 57% and the inhibition at 1 µM came to 43%. With `Cc1ccc(F)c(NC(=O)c2cccc(-c3nnc(-c4ccco4)o3)c2)c1` [Compound 271], for the setting “in vitro enzymatic assay”, the “% inh @ 1 μM” value is 84% and the inhibition at 1 µM came to 83%. The IC50 under setting [2] was 780 nM. `Cc1c(C(=O)Nc2cc(-c3nnc(-c4ccco4)o3)ccc2F)cccc1[N+](=O)[O-]` [Compound 332]: the inhibition at 1 µM (in vitro enzymatic assay) turned out to be 30%. For the setting “in vitro enzymatic assay”, `COC(=O)c1ccc(OC)c(C(=O)Nc2cccc(-c3nnc(-c4ccco4)o3)c2)c1` [Compound 115] registered an inhibition at 1 µM of 51%. At 10 µM the inhibition under setting [1] was 53%. `N#Cc1ccccc1C(=O)Nc1cccc(-c2nnc(-c3ccco3)o2)c1` [Compound 56] gave an inhibition at 10 µM under setting [1] of 2%. In the case of `O=C(Nc1cccc(-c2nnc(-c3cnco3)o2)c1)c1ccccc1F` [Compound 137], for the setting “in vitro enzymatic assay”, the “% inh @ 1 μM” value came out at 48% and 1 µM produced 37% inhibition. The corresponding values for `O=C(Nc1cc(-c2nnc(-c3ccno3)o2)ccc1F)c1ccccc1F` [Compound 139] are 48% and 50%. Under “in vitro enzymatic assay”, `COc1cc(C(=O)Nc2cccc(-c3nnc(-c4ccco4)o3)c2)cc([N+](=O)[O-])c1` [Compound 342] had an inhibition at 1 µM of 41%.

As a reminder, the inhibition is the share of the control response that was lost under treatment. Lower therefore signals a response near the control. By IC50 is commonly meant the concentration that gives 50% inhibition.
